Assay results as given in the PolyMetriX glass transition set.
± gives the standard deviation of the reports.

glass transition temperature | SMILES
44.00 °C | *CCN(CCCCCCOc1ccc(/N=N/c2ccccc2)cc1)CCOC(=O)Nc1ccc(Cc2ccc(NC(=O)O*)cc2)cc1 (repeat unit)
256.00 °C | *c1ccc(C(c2ccc(N3C(=O)c4ccc(Oc5ccc6ccc(Oc7ccc8c(c7)C(=O)N(*)C8=O)cc6c5)cc4C3=O)cc2)(C(F)(F)F)C(F)(F)F)cc1 (repeat unit)
16.00 °C | *CC(*)(C)C(=O)OCCCCCCOc1ccc(OC(=O)c2ccc(OCCCCCC)cc2)cc1 (repeat unit)
268.00 °C | *C(=O)Nc1ccc(Oc2ccccc2-c2ccccc2Oc2ccc(NC(=O)c3ccc4c(c3)C(=O)N(c3ccc(N5C(=O)c6ccc(*)cc6C5=O)cc3)C4=O)cc2)cc1 (repeat unit)
23.00 °C | *Oc1ccc(CC(NC(=O)Cc2ccc(OC(=O)CCCCCCCCC(*)=O)cc2)C(=O)OCCCCCC)cc1 (repeat unit)
37.00 °C | *CC(*)C(=O)Oc1ccc(C(=O)OCC)cc1 (repeat unit)
54.00 °C | *CC(*)c1ccc(C(O)CCN2CCCCC2)cc1 (repeat unit)
86.00 °C | *CCCCCCCCCCCCN1C(=O)c2ccc(-c3ccc(-c4ccc5c(c4)C(=O)N(*)C5=O)cc3)cc2C1=O (repeat unit)
289.00 °C | *c1ccc(-c2ccc(-n3c(-c4ccc(Oc5ccc(S(=O)(=O)c6ccc(Oc7ccc(-c8nc9ccccc9n8*)cc7)cc6)cc5)cc4)nc4ccccc43)cc2)cc1 (repeat unit)
166.30 °C | *Oc1ccc(C(=O)O)c(C(=O)Nc2ccc(NC(=O)c3cc(*)ccc3C(=O)O)cc2)c1 (repeat unit)
55.00 °C | *CCCCCCCNC(=O)CCCCC(=O)N* (repeat unit)
-12.60 °C | *O[Si](C)(C)C#C[Si](C)(C)C#C[Si](C)(C)C#C[Si](C)(C)C#C[Si](C)(C)C#C[Si](C)(C)C#C[Si](*)(C)C (repeat unit)
60.00 °C | *CCCCCOC(=O)c1ccc(/C=C/c2ccc(C(=O)O*)cc2)cc1 (repeat unit)
-29.6 ± 3.9 °C | *CCOC(=O)CCCCCCCCC(=O)O* (repeat unit) [Poly(ethylene sebacate)]
180.00 °C | *Oc1ccc(C(C)(C)c2ccc(OC(=O)c3ccc([Si](C)(C)c4ccc(C(*)=O)cc4)cc3)cc2)cc1 (repeat unit)
113.2 ± 1.8 °C | *c1ccc2c(c1)C(CCCCCCCC)(CCCCCCCC)c1cc(-c3ccc(*)c4nsnc34)ccc1-2 (repeat unit)

glass transition temperature | SMILES
-38.00 °C | *CC(*)c1ccc(COCCOCCCC)cc1 (repeat unit)
220.00 °C | *Oc1ccc(Oc2ccc(C(=O)c3ccc(*)c(S(=O)(=O)O)c3)cc2S(=O)(=O)O)cc1 (repeat unit)
185.00 °C | *Nc1cccc2c(NC(=O)Nc3cc(NC(*)=O)cc(C(=O)Nc4cccc5c4C(=O)c4ccccc4C5=O)c3)cccc12 (repeat unit)
114.00 °C | *OCCCCOC1COC2C(OC(=O)CCCCC(=O)OC3COC4C(*)COC34)COC12 (repeat unit)
120.00 °C | *Nc1cc(NC(=O)c2ccc(-c3ccc(C(*)=O)cc3)cc2)cc(-c2nnc(-c3ccccn3)o2)c1 (repeat unit)
198.00 °C | *C(F)(F)C1(F)C(F)(F)C(*)(F)C(F)(F)C(F)(F)C(F)(F)C1(F)F (repeat unit)
33.50 °C | *Oc1ccc(C(C)(C)c2ccc(OC(=O)CCCCC(*)=O)c(C)c2)cc1C (repeat unit)
200.00 °C | *c1ccc(Oc2ccc(-c3ccc(Oc4ccc(N5C(=O)c6ccc(Oc7cccc(Oc8ccc9c(c8)C(=O)N(*)C9=O)c7)cc6C5=O)cc4)cc3)cc2)cc1 (repeat unit)
134.00 °C | *COc1ccc(C(c2ccc(OCC3(*)COC3)cc2)(C(F)(F)F)C(F)(F)F)cc1 (repeat unit)
74.31 °C | *CCCCCCC(=O)Oc1ccc(OC(=O)c2ccc3c(c2)C(=O)N(*)C3=O)cc1 (repeat unit)
216.00 °C | *c1ccc(Oc2ccc(-n3nccc3-c3cccc(-c4ccnn4*)c3)cc2)cc1 (repeat unit)
16.00 °C | *CCCCCCOC(=O)NCCCCNC(=O)O* (repeat unit)
36.00 °C | *CC(*)(C)C(=O)OCCCCCCOc1ccc(OC(=O)c2ccc(OCCCC)cc2)cc1 (repeat unit)
85.00 °C | *Oc1ccc(C(C)(C)c2ccc(OC(=O)c3cccc(Oc4cccc(C(*)=O)c4)c3)cc2)cc1 (repeat unit)
38.00 °C | *CC(*)C(=O)Oc1cccc(C(=O)OC)c1 (repeat unit)

Further lines, the molecule ahead of its results:

SMILES | glass transition temperature
*Oc1ccc(C(c2ccc(Oc3ccc(C(=O)Nc4ccc(-c5ccc(NC(=O)c6ccc(*)cc6)cc5C(F)(F)F)c(C(F)(F)F)c4)cc3)cc2)(C(F)(F)F)C(F)(F)F)cc1 (repeat unit) | 240.00 °C
*CC(*)C(=O)OCCC#N (repeat unit) | 4.00 °C
*Oc1ccc(C(C)(C)c2ccc(OC(*)=O)c(CC)c2)cc1CC (repeat unit) | 65.00 °C
*C(=O)NCCCCCCNC(=O)c1ccc(*)nc1 (repeat unit) | 80.00 °C
*Oc1ccc(C(=O)OCCCOC(=O)c2ccc(*)cc2)cc1 (repeat unit) | 57.00 °C
*CC(*)C(=O)Oc1cc(C)cc(C)c1 (repeat unit) | 54.00 °C
*C[Si](*)(CCCCC)CCCCC (repeat unit) | -55.00 °C
*O[Si](C)(C)Oc1ccc(*)cc1 (repeat unit) | 90.00 °C
*CCOCCOCCOc1cccc(NC(=O)c2cccc(C(=O)Nc3cccc(O*)c3)c2)c1 (repeat unit) | 111.00 °C
*C(=O)c1ccc2c(c1)C(=O)N(c1ccc(OCCOCCOc3ccc(N4C(=O)c5ccc(*)cc5C4=O)cc3)cc1)C2=O (repeat unit) | 235.00 °C
*c1ccc2oc(-c3ccc(Oc4ccc(C(c5ccc(Oc6ccc(-c7nc8cc(C(*)(C(F)(F)F)C(F)(F)F)ccc8o7)cc6)cc5)(C(F)(F)F)C(F)(F)F)cc4)cc3)nc2c1 (repeat unit) | 255.00 °C
*C1CCC(CC2CCC(N3C(=O)c4ccc(-c5ccc6c(c5)C(=O)N(*)C6=O)cc4C3=O)C(C)C2)CC1C (repeat unit) | 260.00 °C
*CC(O)COc1ccc(C2CC(C(C)C)CCC2(C)c2ccc(O*)cc2)cc1 (repeat unit) | 175.00 °C
*c1ccc(-c2ccc(-c3cc(-c4ccccc4)c4cc(C5(c6ccc7nc(*)cc(-c8ccccc8)c7c6)c6ccccc6-c6ccccc65)ccc4n3)cc2)cc1 (repeat unit) | 380.00 °C
*C(*)(F)Cl (repeat unit) | 77.00 °C
*CCCCCCCCCCCc1nc2ccc(-c3ccc4nc(*)oc4c3)cc2o1 (repeat unit) | 62.00 °C
*/C=C/CCCCCCCCCC* (repeat unit) | -53.00 °C
*Oc1ccc(CC(NC(=O)CCc2ccc(OC(=O)CCCCC(*)=O)cc2)C(=O)OCCCCCC)cc1 (repeat unit) | 37.73 °C
*CC(*)(C)C(=O)OCC1(C)COCOC1 (repeat unit) | 142.00 °C

SMILES | glass transition temperature
*CCN(CCOC(=O)c1ccc(C(=O)O*)c(OCCC)c1)c1ccc(C=C(C#N)C#N)cc1 (repeat unit) | 94.00 °C
*CC(*)c1cccc(C)c1 (repeat unit) [Poly(m-methyl styrene) ] | 95 ± 11 °C
*Oc1ccc(CC(NC(=O)CCc2ccc(OC(=O)CCC(*)=O)cc2)C(=O)OCc2ccccc2)cc1 (repeat unit) | 78.00 °C
*CC(*)(CC(=O)OCCCCCCCCC)C(=O)OCCCCCCCCC (repeat unit) | -13.00 °C
*Oc1ccc(C(C)(C)c2ccc(OC(=O)OCCCOC(*)=O)cc2)cc1 (repeat unit) | 68.10 °C
*c1ccc(-c2ccc(-c3cc(-c4ccc(Oc5ccc(Oc6ccccc6)cc5)cc4)c4cc(-c5ccc6nc(*)cc(-c7ccc(Oc8ccc(Oc9ccccc9)cc8)cc7)c6c5)ccc4n3)cc2)cc1 (repeat unit) | 355.00 °C
*CC(*)(C)C(=O)OCCCCOc1ccc(OC(=O)c2ccc(OC)cc2)cc1 (repeat unit) | 57.00 °C
*Cc1ccc(CNC(=O)c2cc(C(=O)N*)cc(C(C)(C)C)c2)cc1 (repeat unit) | 204.00 °C
*OC(=O)OCC(OC)C(COC(=O)OC1COC2C(*)COC12)OC (repeat unit) | 61.00 °C
*CCCCCN1C(=O)c2ccc(C(=O)Oc3ccc(-c4ccc(OC(=O)c5ccc6c(c5)C(=O)N(*)C6=O)cc4)cc3)cc2C1=O (repeat unit) | 147.00 °C
*c1ccc(-c2ccc(-c3nnc(-c4ccc([Si](c5ccccc5)(c5ccccc5)c5ccc(-c6nnc(*)o6)cc5)cc4)o3)cc2)cc1 (repeat unit) | 278.00 °C
*CC(*)C(=O)OCC(F)(F)C(F)(F)OC(F)(F)C(F)(F)F (repeat unit) | -49.00 °C
*CC(*)C1CCCCC1 (repeat unit) [poly(vinylcyclohexane)] | 104.78 ± 28 °C
*CC(*)c1ccc(C(=O)CC)cc1 (repeat unit) | 102.00 °C
*c1ccc(S(=O)(=O)c2ccc(Oc3ccc(-c4nn(*)c(=O)c5ccccc45)c(F)c3)cc2)cc1 (repeat unit) | 283.00 °C
*CC(*)C(=O)OC(CC)CC (repeat unit) | -6.00 °C
*c1ccc(Oc2ccc(C(=O)c3ccc(Oc4ccc(-c5nnc(*)c6c(-c7ccccc7)c(-c7ccc8ccccc8c7)c(-c7ccc8ccccc8c7)c(-c7ccccc7)c56)cc4)cc3)cc2)cc1 (repeat unit) | 312.00 °C
*c1ccc(N2C(=O)c3ccc(C(=O)c4ccc5c(c4)C(=O)N(c4ccc(-c6nc7cc(-c8ccc9nc(-c%10ccccc%10)c(*)nc9c8)ccc7nc6-c6ccccc6)cc4)C5=O)cc3C2=O)cc1 (repeat unit) | 260.00 °C
*C1C(=O)N(CCCOc2ccc(-c3ccc(C#N)cc3)cc2)C(=O)C1* (repeat unit) | 130.00 °C
